Data from paper PMC11033320, “Activation of p53 signaling and regression of breast and prostate carcinoma cells by spirooxindole-benzimidazole small molecules” (Frontiers in Pharmacology, 2024).

Experiments:
[1] = tested on: HCC-2998; assay: NCI anticancer screening, Colon Cancer HCC-2998; assay type: cell-based; conditions: Homo sapiens; HCC-2998, 10 μM; read-out: % Growth Inhibition (GI %)
How it was run: (§1)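 DTP standard method; NCI-60 human tumour cell line panel, organic-compound protocol.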

[2] = tested on: HL-60(TB); assay: NCI anticancer screening, Leukemia HL-60(TB); assay type: cell-based; conditions: Homo sapiens, read-out: % Growth Inhibition (GI %)
How it was run: as §1

[3] = tested on: BT-549; assay: NCI anticancer screening, Breast Cancer BT-549; assay type: cell-based; conditions: Homo sapiens; BT-549, 10 μM; read-out: % Growth Inhibition (GI %)
How it was run: as §1

[4] = tested on: EKVX; assay: NCI anticancer screening, Non-Small Cell Lung Cancer EKVX; assay type: cell-based; conditions: Homo sapiens, read-out: % Growth Inhibition (GI %)
How it was run: as §1

[5] = tested on: A549/ATCC; assay: NCI anticancer screening, Non-Small Cell Lung Cancer A549/ATCC; assay type: cell-based; conditions: Homo sapiens, read-out: % Growth Inhibition (GI %)
How it was run: as §1

[6] = tested on: OVCAR-3; assay: NCI anticancer screening, Ovarian Cancer OVCAR-3; assay type: cell-based; conditions: Homo sapiens; OVCAR-3, 10 μM; read-out: % Growth Inhibition (GI %)
How it was run: as §1

[7] = tested on: MCF7; assay: NCI anticancer screening, Breast Cancer MCF7; assay type: cell-based; conditions: Homo sapiens; MCF7, 10 μM; read-out: % Growth Inhibition (GI %)
How it was run: as §1

[8] = tested on: KM12; assay: NCI anticancer screening, Colon Cancer KM12; assay type: cell-based; conditions: Homo sapiens; KM12, 10 μM; read-out: % Growth Inhibition (GI %)
How it was run: as §1

[9] = tested on: T-47D; assay: NCI anticancer screening, Breast Cancer T-47D; assay type: cell-based; conditions: Homo sapiens, T47D, read-out: % Growth Inhibition (GI %)
How it was run: as §1

[10] = tested on: MOLT-4; assay: NCI anticancer screening, Leukemia MOLT-4; assay type: cell-based; conditions: Homo sapiens; MOLT-4, 10 μM; read-out: % Growth Inhibition (GI %)
How it was run: as §1

[11] = tested on: NCI-H460; assay: NCI anticancer screening, Non-Small Cell Lung Cancer NCI-H460; assay type: cell-based; conditions: Homo sapiens; NCI-H460, 10 μM; read-out: % Growth Inhibition (GI %)
How it was run: as §1

[12] = tested on: SR; assay: NCI anticancer screening, Leukemia SR; assay type: cell-based; conditions: Homo sapiens, read-out: % Growth Inhibition (GI %)
How it was run: as §1

[13] = tested on: HOP-92; assay: NCI anticancer screening, Non-Small Cell Lung Cancer HOP-92; assay type: cell-based; conditions: Homo sapiens; HOP-92, 10 μM; read-out: % Growth Inhibition (GI %)
How it was run: as §1

[14] = tested on: SN12C; assay: NCI anticancer screening, Renal Cancer SN12C; assay type: cell-based; conditions: Homo sapiens, read-out: % Growth Inhibition (GI %)
How it was run: as §1

[15] = tested on: CCRF-CEM; assay: NCI anticancer screening, Leukemia CCRF-CEM; assay type: cell-based; conditions: Homo sapiens, read-out: % Growth Inhibition (GI %)
How it was run: as §1

[16] = tested on: OVCAR-5; assay: NCI anticancer screening, Ovarian Cancer OVCAR-5; assay type: cell-based; conditions: Homo sapiens; OVCAR-5, 10 μM; read-out: % Growth Inhibition (GI %)
How it was run: as §1

[17] = tested on: TK-10; assay: NCI anticancer screening, Renal Cancer TK-10; assay type: cell-based; conditions: Homo sapiens; TK-10, 10 μM; read-out: % Growth Inhibition (GI %)
How it was run: as §1

[18] = tested on: SF-268; assay: NCI anticancer screening, CNS Cancer SF-268; assay type: cell-based; conditions: Homo sapiens; SF-268, 10 μM; read-out: % Growth Inhibition (GI %)
How it was run: as §1

[19] = tested on: SNB-75; assay: NCI anticancer screening, CNS Cancer SNB-75; assay type: cell-based; conditions: Homo sapiens; SNB-75, 10 μM; read-out: % Growth Inhibition (GI %)
How it was run: as §1

[20] = tested on: HOP-62; assay: NCI anticancer screening, Non-Small Cell Lung Cancer HOP-62; assay type: cell-based; conditions: Homo sapiens; HOP-62, 10 μM; read-out: % Growth Inhibition (GI %)
How it was run: as §1

[21] = tested on: CAKI-1; assay: NCI anticancer screening, Renal Cancer CAKI-1; assay type: cell-based; conditions: Homo sapiens; CAKI-1, 10 μM; read-out: % Growth Inhibition (GI %)
How it was run: as §1

[22] = tested on: K-562; assay: NCI anticancer screening, Leukemia K-562; assay type: cell-based; conditions: Homo sapiens, K562; K-562, 10 μM; read-out: % Growth Inhibition (GI %)
How it was run: as §1

[23] = tested on: MDA-MB 231 cells; conditions: for inhibition: 5 µM
[24] = tested on: MDA-MB-468; assay: NCI anticancer screening, Breast Cancer MDA-MB-468; assay type: cell-based; conditions: Homo sapiens, read-out: % Growth Inhibition (GI %)
How it was run: as §1

[25] = tested on: UACC-62; assay: NCI anticancer screening, Melanoma UACC-62; assay type: cell-based; conditions: Homo sapiens; UACC-62, 10 μM; read-out: % Growth Inhibition (GI %)
How it was run: as §1

[26] = tested on: HCT-15; assay: NCI anticancer screening, Colon Cancer HCT-15; assay type: cell-based; conditions: Homo sapiens; HCT-15, 10 μM; read-out: % Growth Inhibition (GI %)
How it was run: as §1

[27] = tested on: SW-620; assay: NCI anticancer screening, Colon Cancer SW-620; assay type: cell-based; conditions: Homo sapiens; SW-620, 10 μM; read-out: % Growth Inhibition (GI %)
How it was run: as §1

[28] = tested on: NCI-H522; assay: NCI anticancer screening, Non-Small Cell Lung Cancer NCI-H522; assay type: cell-based; conditions: Homo sapiens; NCI-H522, 10 μM; read-out: % Growth Inhibition (GI %)
How it was run: as §1

[29] = tested on: PC-3 cells; assay: MTT assay anticancer activity, PC-3; assay type: cell-based; conditions: Homo sapiens, PC-3, 5 µM, mean ± SEM, read-out: growth inhibition percentage of PC-3
Description: MTT method was done as described above.

[30] = tested on: SK-MEL-28; assay: NCI anticancer screening, Melanoma SK-MEL-28; assay type: cell-based; conditions: Homo sapiens; SK-MEL-28, 10 μM; read-out: % Growth Inhibition (GI %)
How it was run: as §1

[31] = tested on: 786-0; assay: NCI anticancer screening, Renal Cancer 786-0; assay type: cell-based; conditions: Homo sapiens; 786-0, 10 μM; read-out: % Growth Inhibition (GI %)
How it was run: as §1

[32] = tested on: SF-295; assay: NCI anticancer screening, CNS Cancer SF-295; assay type: cell-based; conditions: Homo sapiens; SF-295, 10 μM; read-out: % Growth Inhibition (GI %)
How it was run: as §1

[33] = tested on: SNB-19; assay: NCI anticancer screening, CNS Cancer SNB-19; assay type: cell-based; conditions: Homo sapiens; SNB-19, 10 μM; read-out: % Growth Inhibition (GI %)
How it was run: as §1

[34] = tested on: SK-MEL-2; assay: NCI anticancer screening, Melanoma SK-MEL-2; assay type: cell-based; conditions: Homo sapiens; SK-MEL-2, 10 μM; read-out: % Growth Inhibition (GI %)
How it was run: as §1

[35] = tested on: NCI-H322M; assay: NCI anticancer screening, Non-Small Cell Lung Cancer NCI-H322M; assay type: cell-based; conditions: Homo sapiens, read-out: % Growth Inhibition (GI %)
How it was run: as §1

[36] = tested on: M14; assay: NCI anticancer screening, Melanoma M14; assay type: cell-based; conditions: Homo sapiens; M14, 10 μM; read-out: % Growth Inhibition (GI %)
How it was run: as §1

[37] = tested on: U251; assay: NCI anticancer screening, CNS Cancer U251; assay type: cell-based; conditions: Homo sapiens, U-251; U251, 10 μM; read-out: % Growth Inhibition (GI %)
How it was run: as §1

| SMILES | inhibition at 10 µM [1] [%] | inhibition at 10 µM [2] [%] | inhibition at 10 µM [3] [%] | inhibition at 10 µM [4] [%] | melting point [°C] | inhibition at 10 µM [5] [%] | inhibition at 10 µM [6] [%] | inhibition at 10 µM [7] [%] | inhibition at 10 µM [8] [%] | inhibition at 10 µM [9] [%] | inhibition at 10 µM [10] [%] | inhibition at 10 µM [11] [%] | inhibition at 10 µM [12] [%] | inhibition at 10 µM [13] [%] | inhibition at 10 µM [14] [%] | inhibition at 10 µM [15] [%] | inhibition at 10 µM [16] [%] | inhibition at 10 µM [17] [%] | inhibition at 10 µM [18] [%] | inhibition at 10 µM [19] [%] | also measured |
| --- | --- | --- | --- | --- | --- | --- | --- | --- | --- | --- | --- | --- | --- | --- | --- | --- | --- | --- | --- | --- | --- |
| O=C(c1nc2ccccc2[nH]1)[C@H]1[C@H](c2cccc(F)c2)C2CSCN2[C@]12C(=O)Nc1ccccc12 (stereo partly drawn) [Compound 6m, (3S,6′R)-6'-(1H-Benzo [d]imidazole-2-carbonyl)-7'-(3-fluorophenyl)-3′,6′,7′,7a′-tetrahydro-1′H-spiro [indoline-3.5′-pyrrolo [1,2-c]thiazol]-2-one] | 91.8 | 98.4 | 99.5 | 88.2 | 224 to 226 | 84.6 | 103 | 91.2 | 98.1 | 79.8 | 85.5 | 97.3 | 82.8 | 99.7 | 96.1 | 112 | 90.5 | 116 | 88.6 | 77.7 | inhibition at 10 µM [20]: 97.9%; inhibition at 10 µM [21]: 74.7%; inhibition at 10 µM [22]: 84.4%; IC50 [23]: 4.73 ± 0.224 µM; inhibition [23]: 62.8 ± 3.91%; inhibition at 10 µM [24]: 99.3%; inhibition at 10 µM [25]: 80.1%; inhibition at 10 µM [26]: 95%; inhibition at 10 µM [27]: 89.1%; inhibition at 10 µM [28]: 77.8%; inhibition at 5 µM [29]: 60.1 ± 0.521%; inhibition at 10 µM [30]: 102%; inhibition at 10 µM [31]: 100%; inhibition at 10 µM [32]: 96.1%; inhibition at 10 µM [33]: 91.9%; inhibition at 10 µM [34]: 95.7%; inhibition at 10 µM [35]: 99.8%; inhibition at 10 µM [36]: 97%; inhibition at 10 µM [37]: 106% |
| O=C(c1nc2ccccc2[nH]1)[C@H]1[C@H](c2ccco2)C2CSCN2[C@]12C(=O)Nc1ccccc12 (stereo partly drawn) [Compound 6n, (3S,6′R)-6'-(1H-Benzo [d]imidazole-2-carbonyl)-7'-(furan-2-yl)-3′,6′,7′,7a′-tetrahydro-1′H-spiro [indoline-3.5′-pyrrolo [1,2-c]thiazol]-2-one] | 104 | 98.4 | 110 | 103 | 240 to 242 | 102 | 110 | 100 | 102 | 84.8 | 96.8 | 102 | 86.8 | 113 | 92.5 | 110 | 97.2 | 133 | 102 | 96 | inhibition at 10 µM [20]: 99.8%; inhibition at 10 µM [21]: 88.5%; inhibition at 10 µM [22]: 89.8%; IC50 [23]: 6.14 ± 0.246 µM; inhibition [23]: 52.9 ± 2.5%; inhibition at 10 µM [24]: 102%; inhibition at 10 µM [25]: 90.6%; inhibition at 10 µM [26]: 105%; inhibition at 10 µM [27]: 95.6%; inhibition at 10 µM [28]: 99.7%; inhibition at 5 µM [29]: 52.5 ± 1.46%; inhibition at 10 µM [30]: 107%; inhibition at 10 µM [31]: 104%; inhibition at 10 µM [32]: 109%; inhibition at 10 µM [33]: 96.8%; inhibition at 10 µM [34]: 124%; inhibition at 10 µM [35]: 101%; inhibition at 10 µM [36]: 101%; inhibition at 10 µM [37]: 109% |
